US20100286024A1, “Insulinotropic compounds and uses thereof” (priority 2005, published 2010)

Legend:
DPP-IV [1] = biological target: DPP-IV (Homo sapiens, UniProt P27487); assay: Dipeptidyl Peptidase IV (DPP-IV) digestion, stability by RP-HPLC (Example 10); type: in vitro ADME
Text: (§1) Their stabilities were monitored by RP-HPLC, noting the disappearance of the intact sequence and appearance of a species missing the N terminal dipeptide or similar fragment.

DPP-IV [2] = assay: as above; type: in vitro ADME; conditions: DPP-IV (isolated peptidase); pH 7.5, 37° C., DPP-IV, 22 hr; new species at 3220 mu, loss of the His-Ala dimer; read-out: share hydrolyzed by DPP-IV within 22 hr
Text: as §1

[3] = Control study: chemical stability in PBS/triethanolamine without DPP-IV; type: physicochemical; conditions: PBS/triethanolamine solution without DPP-IV, PBS/TEthA, pH 7.5, 37°, no DPP-IV, read-out: percentage of peptide remaining
Experimental: In the control study, peptides were incubated with PBS/triethanolamine solution in the absence of DPP-IV to measure their chemical stability.

beta TC-6 cell line = assay: Insulin release assay (insulin ELISA); type: cell-based, mouse; conditions: for Insulin release: 5 mM glucose, 30 minutes, Beta-TC-6 cells, cells only 1.37-3.67
Experimental: This was derived from a pancreatic tumor (insulinoma) arising in a transgenic mouse.
Beta-TC-6 cells were purchased from A.T.C.C. (A.T.C.C. number CCL-11506; Manassas, Va., U.S.A.). Beta-TC-6 cells were cultured in Dulbecco's Modified Eagle's medium supplemented with 15% (v/v) heat-inactivated foetal bovine serum, 1% (v/v) glutamine, 0.45% (w/v) glucose and 0.15% (w/v) sodium bicarbonate at 37° C. in a humidified 5% CO2 atmosphere. Beta-TC-6 cells form islands and the monolayer never becomes confluent; cells were passaged at 70% confluence (7 days from seeding) at a subcultivation ratio of 1:4. The monolayer was disrupted from the surface of the culture flask with 0.25% (w/v) Trypsin-0.53 mM EDTA.
Beta-TC-6 cells were cultured in 12 well plates for between 4-8 days prior to use. Cells were cultured in Krebs-Ringer (10 mM Hepes, pH 7.4, 136 mM NaCl, 4.7 mM KCl and 1.25 mM MgSO4) supplemented with 5 mM glucose for 1 hr at 37° C. in a humidified 5% CO2 atmosphere. This medium was removed, cells washed with Krebs-Ringer. Beta-TC-6 cells were then cultured in 1 ml per well of Krebs-Ringer supplemented with 5 mM glucose and 0, 0.12, 0.6, 3 and 15 μM of peptide in duplicate for 30 minutes at 37° C. in a humidified 5% CO2 atmosphere. Medium was removed, diluted 1:5, and insulin concentration determined using an insulin ELISA kit (Mercodia, Uppsala, Sweden) according to the manufacturer's protocol. Beta-TC-6 cells were washed three times with ice-cold PBS and extracted into 0.5 ml lysis buffer (62.5 mM Tris, pH 7.5, and 1%, v/v, SDS) per well. Protein concentration was determined by Lowry assay. […] Only single-sided p values are shown.

DPP-IV (Homo sapiens, UniProt P27487), sequence (P27487 whole entry, species assumed): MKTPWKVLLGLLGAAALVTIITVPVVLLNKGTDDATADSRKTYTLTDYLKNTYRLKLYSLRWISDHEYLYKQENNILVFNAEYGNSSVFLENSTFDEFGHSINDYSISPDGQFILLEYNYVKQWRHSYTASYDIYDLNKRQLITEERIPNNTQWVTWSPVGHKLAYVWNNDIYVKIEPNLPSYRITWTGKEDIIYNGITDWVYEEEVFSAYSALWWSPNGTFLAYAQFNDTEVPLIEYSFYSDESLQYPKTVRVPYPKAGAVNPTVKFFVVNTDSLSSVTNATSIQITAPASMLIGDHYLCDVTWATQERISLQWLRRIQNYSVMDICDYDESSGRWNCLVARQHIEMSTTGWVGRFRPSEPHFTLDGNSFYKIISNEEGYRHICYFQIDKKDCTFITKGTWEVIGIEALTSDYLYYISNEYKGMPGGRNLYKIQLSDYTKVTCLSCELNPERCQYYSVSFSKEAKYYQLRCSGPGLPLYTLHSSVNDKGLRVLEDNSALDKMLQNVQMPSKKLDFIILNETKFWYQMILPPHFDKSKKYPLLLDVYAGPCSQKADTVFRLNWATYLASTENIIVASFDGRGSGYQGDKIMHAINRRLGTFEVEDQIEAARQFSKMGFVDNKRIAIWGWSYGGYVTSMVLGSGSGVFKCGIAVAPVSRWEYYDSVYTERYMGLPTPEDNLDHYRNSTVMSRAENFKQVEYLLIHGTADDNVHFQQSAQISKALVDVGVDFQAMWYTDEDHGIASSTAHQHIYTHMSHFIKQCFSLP

remaining at 22 h (DPP-IV [1]; DPP-IV (isolated peptidase), PBS/TEthA, pH 7.5, 37°, DPP-IV, 22 hr, read-out: percentage of analogue remaining): < 5%
remaining at 47 h (DPP-IV [1]; DPP-IV (isolated peptidase), PBS/TEthA, pH 7.5, 37°, DPP-IV, 47 hr, read-out: percentage of analogue remaining): < 5%
susceptibility to DPP-IV hydrolysis (DPP-IV [1]; pH 7.5, 37° C., up to 47 hr): susceptible to DPP-IV hydrolysis
metabolised at 22 h (DPP-IV [2]): > 90%
remaining at 22 h ([3]; 22 hr): 95%
remaining at 47 h ([3]; 47 hr): 95%
Structure (SMILES): CC[C@H](C)[C@H](NC(=O)[C@H](Cc1ccccc1)NC(=O)[C@H](CCC(=O)O)NC(=O)[C@H](CCCCN)NC(=O)[C@H](C)NC(=O)[C@H](C)NC(=O)[C@H](CCC(N)=O)NC(=O)CNC(=O)[C@H](CCC(=O)O)NC(=O)[C@H](CC(C)C)NC(=O)[C@H](Cc1ccc(O)cc1)NC(=O)[C@H](CO)NC(=O)[C@H](CO)NC(=O)[C@@H](NC(=O)[C@H](CC(=O)O)NC(=O)[C@H](CO)NC(=O)[C@@H](NC(=O)[C@H](Cc1ccccc1)NC(=O)[C@@H](NC(=O)CNC(=O)[C@H](CCC(=O)O)NC(=O)CNNC(=O)[C@H](C)NC(=O)[C@@H](N)Cc1c[nH]cn1)[C@@H](C)O)[C@@H](C)O)C(C)C)C(=O)N[C@@H](C)C(=O)N[C@@H](Cc1c[nH]c2ccccc12)C(=O)N[C@@H](CC(C)C)C(=O)N[C@H](C(=O)N[C@@H](CCCCN)C(=O)NCC(=O)N[C@@H](CCCNC(=N)N)C(=O)NCC(=O)O)C(C)C [SP007, L-His-L-Ala-NH—NH—CH2—C(O)-Glu9-37]
Insulin release (beta TC-6 cell line; 3 μM peptide): 4.51 ng/min/mg
Activity of 3 μM of each peptide as percentage of insulin release by cells only (beta TC-6 cell line; 3 μM peptide, cells alone=100%): 113 ± 65%
Insulin release (beta TC-6 cell line; 15 μM peptide): 8.08 ng/min/mg
Activity of 15 μM of each peptide as percentage of insulin release by cells only (beta TC-6 cell line; 15 μM peptide, cells alone=100%): 235 ± 91%
